Laboratory results: US12102617B2, “Antimicrobial compositions containing a synergistic combination of activated creatinine and an imidazole antifungal agent” (Board of Regents of the University of Nebraska, priority 2016, dated 2024)
Values after ≈ are worked out from the molar mass of the structure shown. Structures can show the parent of a compound that is named as a salt. Where two headings read alike, the source gives them in different places.

What was measured:
[1] = test system: Staphylococcus aureus (Gram positive; laboratory strain 29213); experiment: MIC determination, two-fold dilutions in 96-well plates (Example 2); type: cell-based; conditions: for antibacterial efficacy against S. aureas (Example 2, FIG. 2): comparative photographs; for MIC: S. aureus, single agent alone, 24 hours at 37° C.
Description: (§1) The antibacterial activity of the clotrimazole/activated creatinine solutions prepared as described in Example 1 was evaluated with respect to Staphylococcus aureus (Gram positive; laboratory strain 29213), E. coli (Gram negative; laboratory strain 35150), and a multiple drug resistant strain of Enterococcus faecalis (Gram positive). The S. aureus and E. coli were purchased from the American Type Culture Collection, and the E. faecalis was a local veterinary clinic isolate. The minimum inhibitory concentration (“MIC”) for each solution was determined against each of the three bacteria after incubation for 24 hours at 37° C. using two-fold dilutions and flat-bottom 96-well plates.

[2] = test system: multiple drug resistant strain of Enterococcus faecalis (Gram positive); experiment: as above; type: cell-based; conditions: E. faecalis (multiple drug resistant), single agent alone, 24 hours at 37° C.
Description: as §1

[3] = test system: E. coli (Gram negative; laboratory strain 35150); experiment: microbe, parasite or virus in culture; type: cell-based; conditions: single agent alone, 24 hours at 37° C.
Description: as §1

[4] = test system: Candida albicans yeast (ATCC1023); experiment: Antifungal MIC evaluation (Example 3); type: cell-based; conditions: C. albicans yeast, single agent alone, 24 hours at 37° C.
Description: (§2) The MIC for each solution was determined against the fungi after incubation for 24 hours at 37° C. using two-fold dilutions and flat-bottom 96-well plates.

[5] = test system: Saccharomyces spp. yeast (baker's yeast); experiment: Antifungal MIC evaluation (Example 3); type: cell-based; conditions: single agent alone, 24 hours at 37° C.
Description: as §2

Penicillium spp. 1 = experiment: Comparative antifungal testing on LB agar plate wells, mold fungi (Example 4); type: cell-based; conditions: 0.1% (w/v) solutions in wells of LB agar plate, after 48 hours
Description: (§3) Two species of penicillium, Penicillium spp. 1 and Penicillium spp. 2, were isolated from contaminates that grew on laboratory plates and were grown in LB broth, shaking for three days. One hundred microliters of the fungal broth were added to an LB agar plate and evenly spread on the surface. Test samples containing the following aqueous solutions were prepared: • 0.1% (w/v) clotrimazole (3.4 mM); • 0.1% (w/v) clotrimazole in 200 mM creatinine ethyl ester hydrochloride (“CEE”) (3.4 mM in clotrimazole; 1.7 mol % clotrimazole in the clotrimazole-creatinine mixture); • 0.1% (w/v) ketoconazole (5.3 mM); • 0.1% (w/v) fluconazole (30 mM). […] (2009) Biochem. Biophys. Res. Comm. 388(2):252-255.

Penicillium spp. 2 = experiment: as above; type: cell-based; conditions: 0.1% (w/v) solutions in wells of LB agar plate, after 48 hours
Description: as §3

[6] = test system: gram negative and gram positive bacteria; conditions: both gram negative and gram positive bacteria, including antibiotic resistant organisms; cited from earlier work

Clc1ccccc1C(c1ccccc1)(c1ccccc1)n1ccnc1 [Clotrimazole, clotrimazole]
antibacterial efficacy against S. aureas (Example 2, FIG. 2) [1]: ineffective
MIC [1]: no impact on bacterial growth
MIC [2]: no impact on bacterial growth
MIC [3]: no impact on bacterial growth
MIC ([4]; Candida albicans, ATCC1023, read-out: MIC): 6 mg/mL (≈ 17.4 mM)
MIC ([5]; read-out: MIC): 7.5 mg/mL (≈ 21.7 mM)
inhibition of fungal growth (Penicillium spp. 1): does not exhibit antifungal activity
inhibition of fungal growth (Penicillium spp. 1; listed as CLO): do not
inhibition of fungal growth (Penicillium spp. 2): does not exhibit antifungal activity
inhibition of fungal growth (Penicillium spp. 2; listed as CLO): do not

CN1CC(=O)N=C1N [activated creatinine, creatinine hydrochloride]
antibacterial efficacy against S. aureas (Example 2, FIG. 2) [1]: ineffective
MIC ([1]; Staphylococcus aureus, read-out: MIC): 10.9 mg/mL
MIC ([2]; Enterococcus faecalis, read-out: MIC): 21.8 mg/mL
MIC ([3]; Escherichia coli, read-out: MIC): 21.9 mg/mL
MIC [4]: no impact on fungal growth
MIC [5]: no impact on fungal growth
inhibitory activity against bacteria [6]: broad spectrum inhibitory activity

OC(Cn1cncn1)(Cn1cncn1)c1ccc(F)cc1F [fluconazole]
inhibition of fungal growth (Penicillium spp. 1): do not
inhibition of fungal growth (Penicillium spp. 2): do not

CC(=O)N1CCN(c2ccc(OCC3COC(Cn4ccnc4)(c4ccc(Cl)cc4Cl)O3)cc2)CC1 (stereo not drawn) [ketoconazole]
inhibition of fungal growth (Penicillium spp. 1): do not
inhibition of fungal growth (Penicillium spp. 2): do not
